Data on 10 molecules can be found in US9994571B2, “10-substituted morphinan hydantoins” (Purdue Pharma L.P., priority 2013, dated 2018).

Where two headings read alike, the source gives them in different places.

Assay [1] addresses T1, κ opioid receptor (Homo sapiens (Human), UniProt P41145). Nature of the assay: κ-opioid receptor radioligand dose-displacement binding assay ([3H]-U69,593). The settings on record: binding assays using HEK-293 cells. Here is the method:
Membranes from HEK-293 cells, CHO or U-2 OS cells expressing the recombinant human κ opioid receptor (κ) were prepared by lysing cells in ice cold hypotonic buffer (2.5 mM MgCl2, 50 mM HEPES, pH 7.4) (10 mL/10 cm dish) followed by homogenization with a tissue grinder/Teflon pestle. Membranes from a cell line naturally expressing kappa opioid receptor can also be used. Membranes were collected by centrifugation at 30,000×g for 15 min at 4° C. and pellets were resuspended in hypotonic buffer to a final concentration of 1-3 mg/mL. Protein concentrations were determined using the BioRad protein assay reagent with bovine serum albumen as standard. Aliquots of K receptor membranes were stored at −80° C.
Radioligand dose displacement assays used 0.4 nM [^3H]-U69,593 (GE Healthcare, Piscataway, N.J.; 40 Ci/mmole) with 15 μg membrane protein (recombinant κ opioid receptor expressed in HEK 293 cells; in-house prep) in a final volume of 200 μl binding buffer (5% DMSO, 50 mM Trizma base, pH 7.4). Non-specific binding was determined in the presence of 10 μM unlabeled naloxone or U69,593. All reactions were performed in 96-well polypropylene plates for 1 hour at a temperature of about 25° C. Binding reactions were terminated by rapid filtration onto 96-well Unifilter GF/C filter plates (Perkin Elmer, Shelton, Conn.) presoaked in 0.5% polyethylenimine (Sigma). Harvesting was performed using a 96-well tissue harvester (Perkin Elmer, Shelton, Conn.) followed by five filtration washes with 200 μl ice-cold binding buffer. Filter plates were subsequently dried at 50° C. for 1-2 hours. Fifty μl/well scintillation cocktail (Perkin Elmer, Shelton, Conn.) was added and plates were counted in a Packard Top-Count for 1 min/well.
(§1) In TABLE 1, binding affinity of certain Compounds of the Invention to the μ- and κ-opioid receptors was determined as described above for binding assays using HEK-293 cells.

The target of the next assay is μ-opioid receptor (Homo sapiens (Human), UniProt P35372). Nature of the assay: μ-opioid receptor radioligand dose-displacement binding assay ([3H]-diprenorphine). The following applies: binding assays using HEK-293 cells. Here is the method: Radioligand dose-displacement binding assays for μ-opioid receptors used 0.3 nM [^3H]-diprenorphine (Perkin Elmer, Shelton, Conn.), with […] membrane protein/well in a final volume of 500 μl binding buffer (10 mM MgCl2, 1 mM EDTA, 5% DMSO, 50 mM HEPES, pH 7.4). Reactions were carried out in the absence or presence of increasing concentrations of unlabeled naloxone. All reactions were conducted in 96-deep well polypropylene plates for 2 hours at room temperature. Binding reactions were terminated by rapid filtration onto 96-well Unifilter GF/C filter plates (Perkin Elmer, Shelton, Conn.), presoaked in 0.5% polyethylenimine using a 96-well tissue harvester (Perkin Elmer, Shelton, Conn.) followed by performing three filtration washes with 500 μl of ice-cold binding buffer. Filter plates were subsequently dried at 50° C. for 2-3 hours. BetaScint scintillation cocktail (Perkin Elmer, Shelton, Conn.) was added (50 μl/well), and plates were counted using a Packard Top-Count for 1 min/well. The data were analyzed using the one-site competition curve fitting functions in GraphPad PRISM™ v. 3.0 or higher (San Diego, Calif.), or an in-house function for one-site competition curve-fitting.
as §1

For assay [2], the target named is T1, κ opioid receptor. Nature of the assay: κ-opioid receptor [35S]GTPγS functional assay. It is filed as biochemical. Here is the method:
Functional [^35S]GTPγS binding assays were conducted as follows. κ opioid receptor membrane solution was prepared by sequentially adding final concentrations of 0.026 μg/μl κ membrane protein (in-house), 10 μg/mL saponin, 3 μM GDP and 0.20 nM [^35S]GTPγS to binding buffer (100 mM NaCl, 10 mM MgCl2, 20 mM HEPES, pH 7.4) on ice. The prepared membrane solution (190 μl/well) was transferred to 96-shallow well polypropylene plates containing 10 μl of 20× concentrated stock solutions of agonist prepared in DMSO. Plates were incubated for 30 min at a temperature of about 25° C. with shaking. Reactions were terminated by rapid filtration onto 96-well Unifilter GF/B filter plates (Perkin Elmer, Shelton, Conn.) using a 96-well tissue harvester (Packard) and followed by three filtration washes with 200 μl ice-cold binding buffer (10 mM NaH2PO4, 10 mM Na2HPO4, pH 7.4). Filter plates were subsequently dried at 50° C. for 2-3 hours. Fifty μl/well scintillation cocktail (Perkin Elmer, Shelton, Conn.) was added and plates were counted in a Packard Top-Count for 1 min/well.
κ GTP EC50 is the concentration of a compound providing 50% of the maximal response for the compound at a K receptor.
κ GTP Emax (%) is the maximal effect elicited by a compound relative to the effect elicited by U69,593.
In TABLE 2, activity response of certain Compounds of the Invention to the μ- and κ-opioid receptors was determined as described above for functional assays using U-2 OS cells.
For orientation: GTPγS resists hydrolysis and so accumulates on activated G proteins.

Setting [3] is: bound given in μM, read-out: Opioid Receptor Ki κ.
The mark [4] stands for this setting: read-out: Opioid Receptor Ki (nM) μ.
Setting [5] is: bound given in μM, read-out: Opioid Receptor Ki μ.
Where [6] appears, read: read-out: Opioid Receptor Ki (nM) κ.

For the molecule `COc1ccc2c(c1)[C@]13CCN(C)[C@H]([C@@H]2O)[C@]1(O)CC[C@@]1(C3)NC(=O)NC1=O` [Compound 12, (4bR,4′S,8aS,9R,10R)-8a,10-dihydroxy-3-methoxy-11-methyl-5,7,8,8a,9,10-hexahydrospiro[9,4b-(epiminoethano)phenanthrene-6,4′-imidazolidine]-2′,5′-dione], the results for the inhibition constant Ki at κ opioid receptor [1] (setting [3]) and on μ-opioid receptor (setting [4]) were greater than 20 µM and 12600 nM, respectively.
As for `COc1ccc2c(c1)[C@]13CCN(CC4CC4)[C@H]([C@@H]2O)[C@]1(O)CC[C@@]1(C3)NC(=O)NC1=O` [Compound 7, (4bR,4′S,8aS,9R,10R)-11-(cyclopropylmethyl)-8a,10-dihydroxy-3-methoxy-5,7,8,8a,9,10-hexahydrospiro[9,4b-(epiminoethano)phenanthrene-6,4′-imidazolidine]-2′,5′-dione], the Ki (usually the equilibrium dissociation constant of an inhibitor or competing ligand from its target) is greater than 20 µM at κ opioid receptor [1] (setting [3]) and greater than 20000 nM on μ-opioid receptor (setting [5]).
On the same counts, the results for `O=C1NC(=O)[C@@]2(CC[C@@]3(O)[C@H]4[C@H](O)c5ccc(O)c6c5[C@@]3(CCN4CC3CC3)[C@H]2O6)N1` [Compound 16, (4S,4′R,4a′S,7a′R,12b′S,13′R)-3′-(cyclopropylmethyl)-4a′,9′,13′-trihydroxy-2′,3′,4′,4a′,5′,6′-hexahydro-1′H,7a′H-spiro[imidazolidine-4,7′-[4,12]methanobenzofuro [3,2-e]isoquinoline]-2,5-dione] are greater than 20 µM and greater than 20000 nM.
With `COc1ccc2c(c1)[C@]13CCN(CC4CC4)[C@H](C2=O)[C@]1(O)CC[C@@]1(C3)NC(=O)NC1=O` [Compound 6, (4bR,4′S,8aS,9S)-11-(cyclopropylmethyl)-8a-hydroxy-3-methoxy-7,8,8a,9-tetrahydrospiro[9,4b-(epiminoethano)phenanthrene-6,4′-imidazolidine]-2′,5′,10(5H)-trione], the Ki at κ opioid receptor [1] (setting [6]) was 1.05 ± 0.0846 µM; on μ-opioid receptor (setting [5]), greater than 20000 nM.
In the case of `COc1ccc2c3c1O[C@@H]1[C@]34CCN(CC3CC3)[C@H]([C@@H]2O)[C@]4(O)CC[C@]12NC(=O)NC2=O` (stereo in doubt) [Compound 9, (4S,4′R,4a′S,7a′R,12b′S,13′R)-3′-(cyclopropylmethyl)-4a′,13′-dihydroxy-9′-methoxy-2′,3′,4′,4a′,5′,6′-hexahydro-1′H,7a′H-spiro[imidazazolidine-4,7′-[4,12]methanobenzofuro[3,2-e]isoquinoline]-2,5-dione], the figures for the inhibitory constant (Ki) at κ opioid receptor [1] (setting [3]) and at μ-opioid receptor (setting [5]) were greater than 20 µM and greater than 20000 nM, respectively.
As to `COc1ccc2c(c1)[C@]13CCN(C)[C@H](C2=O)[C@]1(O)CC[C@@]1(C3)NC(=O)NC1=O` [Compound 11, (4bR,4′S,8aS,9S)-8a-hydroxy-3-methoxy-11-methyl-7,8,8a,9-tetrahydrospiro [9,4b-(epiminoethano)phenanthrene-6,4′-imidazolidine]-2′,5′,10(5H)-trione], the inhibition constant (Ki) was greater than 20 µM at κ opioid receptor [1] (setting [3]) and greater than 20000 nM at μ-opioid receptor (setting [5]).
The like results for `COc1ccc2c3c1O[C@@H]1[C@]34CCN(CC3CC3)[C@H](C2=O)[C@]4(O)CC[C@]12NC(=O)NC2=O` [Compound 8, (4S,4′S,4a′S,7a′R,12b′S)-3′-(cyclopropylmethyl)-4a′-hydroxy-9′-methoxy-2′,3′,4′,4a′,5′,6′-hexahydro-1′H,7a′H-spiro[imidazolidine-4,7′-[4,12]methanobenzofuro[3,2-e]isoquinoline]-2,5,13′-trione] were, in that order, greater than 20 µM and greater than 20000 nM.
Consider `COc1ccc2c(c1)[C@]13CCN(CC4CC4)[C@H]([C@@H]2O)[C@@H]1CC[C@@]1(C3)NC(=O)NC1=O` [Compound 10, (4bS,4′S,8aR,9S,10R)-11-(cyclopropylmethyl)-10-hydroxy-3-methoxy-5,7,8,8a,9,10-hexahydrospiro[9,4b-(epiminoethano)phenanthrene-6,4′-imidazolidine]-2′,5′-dione], for which the Ki on κ opioid receptor [1] (setting [6]) is 3.58 ± 0.647 µM; on μ-opioid receptor (setting [5]), greater than 20000 nM.
Take `O=C1NC(=O)[C@@]2(CC[C@@]3(O)[C@H]4[C@H](O)c5ccc(O)cc5[C@@]3(CCN4CC3CC3)C2)N1` [Compound 14, (4bR,4′S,8aS,9R,10R)-11-(cyclopropylmethyl)-3,8a,10-trihydroxy-5,7,8,8a,9,10-hexahydrospiro[9,4b-(epiminoethano)phenanthrene-6,4′-imidazolidine]-2′,5′-dione]: at κ opioid receptor [2], the EC50 (usually the concentration at which the effect is half-maximal) worked out at 0.183 ± 0.0173 µM. Also, the Emax – broadly, the size of the effect at its maximum, as opposed to the concentration needed – on κ opioid receptor [2] (functional assays using U-2 OS cells, relative to the effect elicited by U69,593) is 111 ± 2.91%. In addition, the Ki on κ opioid receptor [1] (setting [6]) was found to be 0.0781 ± 0.021 µM; at μ-opioid receptor (setting [4]) it was 1020 ± 52.1 nM.
Take `O=C1NC(=O)[C@@]2(CC[C@@]3(O)[C@H]4C(=O)c5ccc(O)c6c5[C@@]3(CCN4CC3CC3)[C@H]2O6)N1` [Compound 15, (4S,4′S,4a′S,7a′R,12b′S)-3′-(cyclopropylmethyl)-4a′,9′-dihydroxy-2′,3′,4′,4a′,5′,6′-hexahydro-1′H,7a′H-spiro [imidazolidine-4,7′-[4,12]methanobenzofuro [3,2-e]isoquinoline]-2,5,13′-trione]: the Ki on κ opioid receptor [1] (setting [6]) was 2.52 ± 0.708 µM; at μ-opioid receptor (setting [4]), 15400 ± 3130 nM.
